These results are taken from ChEMBL document CHEMBL1151154, “Potential inhibitors of platelet aggregation from plant sources, V. Anthraquinones from seeds of Cassia obtusifolia and related compounds” (1990).

The structures appear in SMILES notation.

Assay type in all cases: functional
Experiment [1] is described as follows: Antiplatelet activity in rat platelet rich plasma assessed as drug level causing inhibition of arachidonic acid-stimulated platelet aggregation pretreated 2 mins before arachidonic acid challenge.
Experiment [2] can be described thus: Antiplatelet activity in rat platelet rich plasma assessed as drug level causing inhibition of ADP-stimulated platelet aggregation pretreated 2 mins before ADP challenge.
Experiment [3] can be described thus: Antiplatelet activity in rat platelet rich plasma assessed as drug level causing inhibition of collagen-stimulated platelet aggregation pretreated 2 mins before collagen challenge.

As to `O=C1c2cccc(O)c2C(=O)c2c(O)cc(CO)cc21` [ALOE-EMODIN], the values for the Activity in experiment [1], in experiment [2] and in experiment [3] were 0.25 mg/mL, over 0.25 mg/mL and 0.25 mg/mL, respectively.
As to `O=C1c2ccccc2C(=O)c2c1ccc(O)c2O` [ATHRAQUINONES A], the Activity in experiment [1], in experiment [2] and in experiment [3] was over 0.25 mg/mL throughout.
Regarding `Cc1cc(O)c2c(c1)Cc1cccc(O)c1C2=O`, the Activity in experiment [1], in experiment [2] and in experiment [3] was over 0.25 mg/mL each time.
For `Cc1cc(O)c2c(c1)C(=O)c1cccc(O)c1C2=O` [CHRYSOPHANOL], the Activity in experiment [1], in experiment [2] and in experiment [3] was over 0.25 mg/mL in each case.
As for `COc1c(O[C@@H]2O[C@H](CO)[C@@H](O)[C@H](O)[C@H]2O)cc2c(c1O)C(=O)c1c(cc(C)c(O)c1OC)C2=O`, the Activity in experiment [1] was determined as 0.05 mg/mL; in experiment [2] it was 0.05 mg/mL; in experiment [3], 0.1 mg/mL.
Regarding `O=C1c2ccccc2C(=O)c2c(O)ccc(O)c21` [QUINIZARIN], the Activity in experiment [1], in experiment [2] and in experiment [3] was over 0.25 mg/mL in each case.
As to `Cc1cc(O)c2c(c1)C(=O)c1cc(O)cc(O)c1C2=O` [EMODIN], the Activity in experiment [1], in experiment [2] and in experiment [3] was over 0.25 mg/mL in each case.
With `COc1c(O[C@@H]2O[C@H](CO)[C@@H](O)[C@H](O)[C@H]2O)c(C)cc2c1C(=O)c1c(O)cccc1C2=O`, the Activity in experiment [1] turned out to be 0.05 mg/mL; in experiment [2], 0.25 mg/mL; in experiment [3] it was 0.1 mg/mL.
Take `COc1cc2c(c(OC)c1OC)C(=O)c1c(cc(C)c(O[C@@H]3O[C@H](CO)[C@@H](O)[C@H](O)[C@H]3O)c1OC)C2=O`: the Activity in experiment [1] was found to be 0.025 mg/mL; in experiment [2], 0.025 mg/mL; in experiment [3], 0.05 mg/mL.
As for `COc1cc(O)c2c(c1)C(=O)c1cc(C)cc(O)c1C2=O` [PHYSCION], the Activity was 0.25 mg/mL in experiment [1], 0.25 mg/mL in experiment [2] and over 0.25 mg/mL in experiment [3].
Regarding `COc1cc2c(c(OC)c1OC)C(=O)c1c(cc(C)c(O)c1OC)C2=O` [CHRYSOOBTUSIN], the Activity in experiment [1], in experiment [2] and in experiment [3] was 0.25 mg/mL each time.
Turning to `COc1c(O)c(C)cc2c1C(=O)c1c(O)cccc1C2=O` [OBTUSIFOLIN], the Activity in experiment [1] is 0.25 mg/mL; in experiment [2], over 0.25 mg/mL; in experiment [3], 0.25 mg/mL.
Take `O=C(O)c1cc(O)c2c(c1)C(=O)c1cccc(O)c1C2=O` [RHEIN]: the Activity in experiment [1], in experiment [2] and in experiment [3] was 0.25 mg/mL throughout.
`COc1c(O)cc2c(c1O)C(=O)c1c(cc(C)c(O)c1OC)C2=O` [AURANTIOOBTUSIN]: the Activity in experiment [1], in experiment [2] and in experiment [3] was over 0.25 mg/mL in each case.
Regarding `O=C1c2cccc(O)c2C(=O)c2c(O)cccc21` [DANTHRON], the Activity in experiment [1], in experiment [2] and in experiment [3] was over 0.25 mg/mL each time.
Turning to `O=C1c2ccc(O)cc2C(=O)c2ccc(O)cc21` [ANTHRAFLAVICACID], the Activity in experiment [1], in experiment [2] and in experiment [3] was over 0.25 mg/mL in each case.
